In ChEMBL document CHEMBL1201862, “PubChem BioAssay data set” (2004):
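Grown in 96-well plates, cells were treated for 48 hours with each compound at five concentrations. Insufficient inhibition: endpoint recorded as highest concentration tested. GI50: concentration for 50% inhibition of growth.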 Activity calls are given as the source filed them. Rule as the data show it: active = GI50 up to about 1.1 µM and inactive = higher.

Key:
Assay in all cases: NCI anticancer screen, dose series, 48 h
Hs-578T = test system: Hs-578T
SK-MEL-5 = test system: SK-MEL-5
SW-620 = test system: SW-620
SNB-19 = test system: SNB-19
SK-MEL-28 = test system: SK-MEL-28
MDA-MB-435 = test system: MDA-MB-435
RPMI-8226 = test system: RPMI-8226
NCI-H226 = test system: NCI-H226
A549 = test system: A549
HCT-116 = test system: HCT-116
OVCAR-5 = test system: OVCAR-5
SK-OV-3 = test system: SK-OV-3
SN12C = test system: SN12C
SK-MEL-2 = test system: SK-MEL-2
BT-549 = test system: BT-549
OVCAR-8 = test system: OVCAR-8
TK-10 = test system: TK-10
UO-31 = test system: UO-31
M14 = test system: M14
KM12 = test system: KM12

Row | Structure (SMILES) | GI50 (Hs-578T) | GI50 (SK-MEL-5) | GI50 (SW-620) | GI50 (SNB-19) | GI50 (SK-MEL-28) | GI50 (MDA-MB-435) | GI50 (RPMI-8226) | GI50 (NCI-H226) | GI50 (A549) | GI50 (HCT-116) | GI50 (OVCAR-5) | GI50 (SK-OV-3) | GI50 (SN12C) | GI50 (SK-MEL-2) | GI50 (BT-549) | GI50 (OVCAR-8) | GI50 (TK-10) | GI50 (UO-31) | GI50 (M14) | GI50 (KM12)
1 | CCO/C=N/NC(=O)CSc1nc2ccc(I)cc2c(=O)n1Cc1ccccc1 | 34.6 µM (inactive) | > 100 µM (inactive) | 46.2 µM (inactive) | 44.2 µM (inactive) | > 100 µM (inactive) | 38.7 µM (inactive) | 49.3 µM (inactive) | 64.4 µM (inactive) | > 100 µM (inactive) | 28.8 µM (inactive) | > 100 µM (inactive) | > 100 µM (inactive) | 84.5 µM (inactive) | 21.7 µM (inactive) | > 100 µM (inactive) | 87.5 µM (inactive) | 34.7 µM (inactive) | > 100 µM (inactive) | 70.3 µM (inactive) | 46.9 µM (inactive)
2 | NC1CCCCC1NCCNC1CCCCC1N (stereo not given) | 44.7 µM (inactive) | > 100 µM (inactive) | 41.6 µM (inactive) | > 100 µM (inactive) | > 100 µM (inactive) | > 100 µM (inactive) | > 100 µM (inactive) | > 100 µM (inactive) | 28.8 µM (inactive) | 47.5 µM (inactive) | 20.9 µM (inactive) | > 100 µM (inactive) | > 100 µM (inactive) | > 100 µM (inactive) | > 100 µM (inactive) | > 100 µM (inactive) | > 100 µM (inactive) | > 100 µM (inactive) | > 100 µM (inactive) | > 100 µM (inactive)
3 | COc1cc2c(c(OC)c1OC)-c1c(cc3c(c1OC)OCO3)CC(C)C(C)(O)C2OC(=O)c1ccccc1 (stereo not given) | 32.5 µM (inactive) | 31.1 µM (inactive) | 71.8 µM (inactive) | 37.8 µM (inactive) | 63.7 µM (inactive) | 55 µM (inactive) | 22 µM (inactive) | 29.4 µM (inactive) | 42.1 µM (inactive) | 31.4 µM (inactive) | > 100 µM (inactive) | 60.4 µM (inactive) | 40.5 µM (inactive) | 25 µM (inactive) | 56.1 µM (inactive) | 40.6 µM (inactive) | 96.2 µM (inactive) | 21.1 µM (inactive) | 34.4 µM (inactive) | 41.1 µM (inactive)
4 | COc1cc([C@H]2c3cc(O)c(OC)cc3C[C@]3(O)[C@@H]2CO[C@@H]3O)ccc1O | > 100 µM (inactive) | > 100 µM (inactive) | > 100 µM (inactive) | > 100 µM (inactive) | > 100 µM (inactive) | > 100 µM (inactive) | > 100 µM (inactive) | > 100 µM (inactive) | > 100 µM (inactive) | > 100 µM (inactive) | > 100 µM (inactive) | > 100 µM (inactive) | > 100 µM (inactive) | > 100 µM (inactive) | > 100 µM (inactive) | > 100 µM (inactive) | > 100 µM (inactive) | > 100 µM (inactive) | > 100 µM (inactive) | > 100 µM (inactive)
5 | CCc1nc(N)nc(N)c1-c1ccc(Cl)c([N+](=O)[O-])c1 | 28.1 µM (inactive) | 0.417 µM (active) | 0.0475 µM (active) | 10.5 µM (inactive) | 37.9 µM (inactive) | 0.0752 µM (active) | 0.676 µM (active) | 18.2 µM (inactive) | 0.0218 µM (active) | 0.0224 µM (active) | 6.11 µM (inactive) | 11.2 µM (inactive) | 1.79 µM (inactive) | 17.9 µM (inactive) | 31.2 µM (inactive) | 0.074 µM (active) | 17.9 µM (inactive) | 1.18 µM (inactive) | 0.0735 µM (active) | 0.535 µM (active)
6 | S=C1/C(=N/c2ccccc2)N(c2ccccc2)/C(=N\c2cccc[n+]2Cc2ccccc2)N1c1ccccc1 | 33.9 µM (inactive) | 12.8 µM (inactive) | 13.9 µM (inactive) | 15.4 µM (inactive) | 17.6 µM (inactive) | 10.6 µM (inactive) | 17.4 µM (inactive) | 19.3 µM (inactive) | 20.9 µM (inactive) | 11.1 µM (inactive) | 15.9 µM (inactive) | 21.7 µM (inactive) | 21 µM (inactive) | 24.3 µM (inactive) | 14.3 µM (inactive) | 17.9 µM (inactive) | 26.3 µM (inactive) | 16.4 µM (inactive) | 12.9 µM (inactive) | 16.6 µM (inactive)
7 | CCOC(=O)/C=C(/OCC)[C@@H]1C(C(=O)c2ccc(Cl)cc2)[C@H]1/C(=C\C(=O)OCC)OCC (stereo not given in full) | > 100 µM (inactive) | 24.9 µM (inactive) | > 100 µM (inactive) | > 100 µM (inactive) | > 100 µM (inactive) | > 100 µM (inactive) | 5.35 µM (inactive) | > 100 µM (inactive) | > 100 µM (inactive) | 15.5 µM (inactive) | > 100 µM (inactive) | > 100 µM (inactive) | > 100 µM (inactive) | > 100 µM (inactive) | > 100 µM (inactive) | > 100 µM (inactive) | > 40.5 µM (inactive) | 8.79 µM (inactive) | > 100 µM (inactive) | 56.9 µM (inactive)
